Values joined by “and” are separate entries in the source; they are usually repeats but may differ in a detail not shown here. Identical values can stand only once. Like-named read-outs stand apart in the source and are kept apart here.
Key:
[1] = cited from earlier work
CT-26 = CT-26 murine colon tumor volume growth; format: in vivo; conditions: 150.00 mg/kg PO QD to end + Isotype Control 0.05 mg/kg IP QDx1, in mm³
Experimental: • Group 1 Isotype Control+Compound ID #24 Vehicle Control • Group 2 Isotype Control+Compound ID #24 • Group 3 Anti-m4-1BB 0.05 mg/kg • Group 4 Anti-m4-1BB 0.10 mg/kg • Group 5 Anti-m4-1BB 0.05 mg/kg+Compound ID #24

[2] = tested on: intratumoral CD8 T-cells and natural killer cells; test: Intratumoral immune cells in tumor bearing mice; format: in vivo
U266 = test: CellTiter-Glo cell viability, U266 (Myeloma); format: cell-based
Experimental: Compound ID #24 (a compound of formula (I)) and Compound ID #26 (a compound of formula (II)) were tested for the inhibition of cancer cell proliferation. Cell viability in the presence of varying concentrations of Compound ID #24 and Compound ID #26 at different time points was used to assess cytotoxicity and the effect of the compounds on cell proliferation. The data clearly show the surprising and unexpected increased anti-cancer activity associated with Compound ID #24 compared to Compound ID #26.
Cell Viability Assay—Cell viability was measured by the CellTiter-Glo® cell viability assay Promega (Madison, Wis.). The CellTiter-Glo® Luminescent Cell Viability Assay is a homogeneous method to determine the number of viable cells in culture based on quantitation of the ATP present, which signals the presence of metabolically active cells. Following treatment, CellTiter-Glo® is added to treatment wells and incubated at 37° C. luminescence values were measured at using a Molecular Devices Spectramax microplate reader.
Single Agent Studies—Cells were grown to 70% confluency, trypsinized, counted, and seeded in 96 well flat-bottom plates at a final concentration of 2.5×10^3-5×10^3 cells/well (Day 0). Cells were allowed to incubate in growth media for 24 hours. […] Viable cell numbers are quantified by the CellTiter-Glo® cell viability assay as described above. […]

MC-38 = MC-38 murine colon tumor volume growth; format: in vivo; conditions: 150.00 mg/kg PO QD to end, in mm³
Experimental: • Group 1 Isotype Control 5.00 mg/kg+Compound ID #24 Vehicle • Group 3 Compound ID #24 150.00 mg/kg • Group 4 anti-mGITR 5.00 mg/kg • Group 6 anti-mGITR 5.00 mg/kg+Compound ID #24 150.00 mg/kg

[3] = Pharmacokinetic studies, plasma of healthy mice; format: in vivo; conditions: mouse; for Half-life: 1.0 mg/kg IV; for AUC0-∞: 5.0 mg/kg PO; for AUC: plasma, 5 mg/kg oral (PO)
Experimental: Plasma samples were collected from healthy mice and analyzed for levels of compound ID #24, ID #25, and ID #26 and reported in Table 6. In brief, compounds were individually and accurately weighed out to produce a stock solution in Dimethyl-sulfoxide (DMSO) at a concentration of 2 mg/mL and stored at −20° C. From the stock solution, a working stock was prepared by diluting it in Methanol-Water 50:50 (v/v) at 20 μg/mL for calibration curve preparation and stored at 4° C. Standards used for quantitation and quality control samples (QC's) were prepared on the same day of sample processing using blank plasma obtained from non-treated mice. For each analyte, standards were prepared through serial dilution of the working stock at concentrations of 0.1, 0.5, 1.0, 10, 50, 100, 500 and 1000 ng/mL; QC's were prepared at intermediate concentrations of 0.75, 7.5, 75 and 750 ng/mL. Plasma samples were stored at −80° C. until ready for analysis and then placed on ice for thawing. An aliquot of 20 μL for samples, standards and QC's, were transferred into a 96-well extraction plate according to a pre-defined layout. Appropriate volume of Methanol-Formic Acid 99.9-0.1 containing internal standard (Verapamil at 25 ng/mL) was added to each well and samples were extracted under vacuum. Eluent was then transferred into a LCMS plate for analysis using a suitable column for separation and MRM detection. Concentration of analytes was calculated based on the calibration curve and analyzed for pharmacokinetic parameters by using Non-compartmental analysis (NCA) using WinNonlin Phoenix software. Parameters such as Cmax, Tmax, half-life, AUC(0-last), AUC(0-∞), volume of distribution (Vss) and clearance (Cl/F) were reported.
The analogs were tested for pharmacokinetic analysis in the mouse with doses of 1 mg/kg for intravenous (IV) route and 5 mg/kg for oral (PO) route. […] Overall exposure following IV dose also favored compound ID #24 with AUC0-∞ 1488.1 hr*ng/mL whereas compound ID #25 and ID #26 were 329.1 and 1193.7 hr*ng/mL, respectively.

[4] = tested on: MM1.S human myeloma cells; test: Human MM1.S myeloma xenograft, single agent screening; format: in vivo; conditions: female athymic nude mice; 100 mg/kg daily for 19 days, oral gavage
From the text: Body weights and tumor measurements were collected twice weekly.

cancer cell models = conditions: cited from earlier work

Nc1ncn([C@@H]2O[C@H](CO)[C@@H](O)[C@H]2O)c(=O)n1 [Azacitidine, 4-amino-1-β-D-ribofuranozyl-s-triazin-2(1H)-one]
Solubility ([1]; acetone, ethanol and methyl ketone): insoluble | Solubility ([1]; dimethylsulfoxide (DMSO)): soluble | Solubility ([1]; ethanol/water (50/50), propylene glycol and polyethylene glycol): slightly soluble | Solubility ([1]; water, water-saturated octanol, 5% dextrose in water, N-methyl-2-pyrrolidone, normal saline and 5% Tween 80 in water): sparingly soluble

O=C(NO)c1ccc(Nc2nc3ccccc3n2CC2CCCCC2)cc1 [Compound ID #24, 4-(1-(cyclohexylmethyl)-1H-benzo[d]imidazol-2-ylamino)-N-hydroxybenzamide]
Tumor volume, Mean (CT-26; Day 1): 122.0 | Tumor volume, Median (CT-26; Day 1): 113.8 | Tumor volume, individual animals (CT-26; Day 1): 106 and 85 and 156 and 149 and 114 | Tumor volume, Mean (CT-26; Day 5): 165.5 | Tumor volume, Median (CT-26; Day 5): 144.8 | Tumor volume, individual animals (CT-26; Day 5): 131 and 73 and 299 and 158 | Tumor volume, Mean (CT-26; Day 8): 215.2 | Tumor volume, Median (CT-26; Day 8): 208.7 | Tumor volume, individual animals (CT-26; Day 8): 176 and 65 and 378 and 242 | Tumor volume, Mean (CT-26; Day 9): 241.8 | Tumor volume, Median (CT-26; Day 9): 245.2 | Tumor volume, individual animals (CT-26; Day 9): 198 and 65 and 412 and 292 | Tumor volume, Mean (CT-26; Day 12): 307.4 | Tumor volume, Median (CT-26; Day 12): 285.7 | Tumor volume, individual animals (CT-26; Day 12): 212 and 68 and 590 and 359 | Tumor volume, Mean (CT-26; Day 14): 382.7 | Tumor volume, Median (CT-26; Day 14): 352.6 | Tumor volume, individual animals (CT-26; Day 14): 254 and 67 and 758 and 452 | numbers of intratumoral CD8 T-cells and natural killer cells [2]: increased numbers of intratumoral CD8 T-cells and natural killer cells | Improvement ID#24 over ID#26 Fold Change (U266): 3.50 | Tumor volume, Mean (MC-38; Day 1): 94.5 | Tumor volume, Median (MC-38; Day 1): 92.2 | Tumor volume, individual animals (MC-38; Day 1): 68 and 81 and 103 and 128 and 92 | Tumor volume, Mean (MC-38; Day 6): 141.8 | Tumor volume, Median (MC-38; Day 6): 137.6 | Tumor volume, individual animals (MC-38; Day 6): 72 and 92 and 138 and 231 and 176 | Tumor volume, Mean (MC-38; Day 9): 154.8 | Tumor volume, Median (MC-38; Day 9): 148.0 | Tumor volume, individual animals (MC-38; Day 9): 83 and 121 and 148 and 240 and 182 | Tumor volume, Mean (MC-38; Day 12): 187.8 | Tumor volume, Median (MC-38; Day 12): 190.0 | Tumor volume, individual animals (MC-38; Day 12): 123 and 158 and 222 and 248 | Tumor volume, Mean (MC-38; Day 15): 235.9 | Tumor volume, Median (MC-38; Day 15): 251.8 | Tumor volume, individual animals (MC-38; Day 15): 135 and 213 and 290 and 305 | Tumor volume, Mean (MC-38; Day 19): 285.2 | Tumor volume, Median (MC-38; Day 19): 289.3 | Tumor volume, individual animals (MC-38; Day 19): 178 and 289 and 388 | Tumor volume, Mean (MC-38; Day 22): 389.1 | Tumor volume, Median (MC-38; Day 22): 397.8 | Tumor volume, individual animals (MC-38; Day 22): 244 and 398 and 526 | Tumor volume, Mean (MC-38; Day 26): 566.5 | Tumor volume, Median (MC-38; Day 26): 540.0 | Tumor volume, individual animals (MC-38; Day 26): 370 and 540 and 789 | Tumor volume, Mean (MC-38; Day 29): 714.8 | Tumor volume, Median (MC-38; Day 29): 646.1 | Tumor volume, individual animals (MC-38; Day 29): 495 and 646 and 1,003 | Half-life [3]: 3.70 h | AUC0-∞ [3]: 3974.82 ng·h/mL | AUC [3]: 3970 ng·h/mL | anticancer activity (tumor volume) [4]: significantly superior anticancer activity when compared to either Compound ID #25 or Compound ID #26

O=C(NO)c1ccc(Nc2nc3ccccc3n2C2CCCCC2)cc1 [Compound ID #25, 4-(1-cyclohexyl-1H-benzo[d]imidazol-2-ylamino)-N-hydroxybenzamide]
Half-life [3]: 1.20 h | AUC0-∞ [3]: 1277.26 ng·h/mL | AUC [3]: 1280 ng·h/mL

O=C(NO)c1ccc(Nc2nc3ccccc3n2C2CCCCCC2)cc1 [Compound ID #26, 4-(1-cycloheptyl-1H-benzo[d]imidazol-2-ylamino)-N-hydroxybenzamide]
AUC [3]: 1650 ng·h/mL

Nc1ncn([C@H]2C[C@H](O)[C@@H](CO)O2)c(=O)n1 [Decitabine, 4-amino-1-(2-deoxy-β-D-erythro-pentofuranosyl)-1,3,5-triazin-2(1H)one]
cell cycle, clonogenic survival and growth in cells (cancer cell models; Palii et al. 2008): causes G2 arrest, reduces clonogenic survival, and inhibits growth in cells | effect on growth and apoptosis of cancer cell models (cancer cell models; through re-expression of silenced genes): suppression of growth and apoptosis | Solubility ([1]; dimethylsulfoxide (DMSO)): soluble | Solubility ([1]; ethanol/water (50/50), methanol/water (50/50) and methanol): slightly soluble | Solubility ([1]; water): sparingly soluble

Source: patent US12076401B2, “Benzamide and active compound compositions and methods of use” (TRANSLATIONAL DRUG DEVELOPMENT, LLC, priority 2015, dated 2024)
